The record followed here is patent US12036292B2, “Heterobiaryl compounds and imaging agents for imaging huntingtin protein” (CHDI Foundation, Inc., priority 2020, dated 2024).

In the assay the target is T1, MBP-HTT(1-89)Q46-His(6×) (“Exon1-Q46”) protein aggregates (Homo sapiens, UniProt P42858, INS38QQQQQQQQQQQQQQQQQQQQQQQQQ).
T1 construct: MBP-HTT(1-89)Q46-His(6×); His(6×) (C); made in house
T1 sequence (P42858 with tags, fused parts or gaps with the stated changes limits assumed): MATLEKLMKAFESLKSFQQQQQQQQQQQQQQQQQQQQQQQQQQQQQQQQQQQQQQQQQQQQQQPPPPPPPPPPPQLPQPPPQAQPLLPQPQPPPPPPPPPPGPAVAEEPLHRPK
The experiment in a line: Exon1-Q46 Radioligand Binding Assay. Conditions: displacement of 0.3 nM ligand [3H3-methyl]-5-((5-methoxypyridin-2-yl)methoxy)-2-(pyrazin-2-yl)benzo[d]oxazole from 1 μM aggregated Exon1-Q46 protein; 60 minutes at 37° C.; read-out: Classified Potency. The method, then: Exon1-Q46 Radioligand Binding Assay
For radioligand binding assays (RBA) MBP-HTT(1-89)Q46-His(6×) (“Exon1-Q46”) protein was generated based on a previous publication (Scherzinger et al. Cell, Vol. 90, 549-558, Aug. 8, 1997). For experiments, 30 pM MBP-Exon1-Q46 was incubated with 150 μg/mL thrombin in assay buffer (150 mM NaCl, 50 mM Tris pH 8.0) and 2 mM CaCl2 for 16 hours at 37° C. Aggregated Exon1-Q46 was pelleted by centrifugation for 5 minutes at 13,000 rpm in a bench top centrifuge and re-dissolved in the same volume of assay buffer. Test compounds were prepared by titration in DMSO at 11 concentrations from 63 μM to 2 nM. For the RBA, Q46 protein aggregates and test compounds were pre-incubated in assay buffer for 20 minutes at room temperature, in 100 μL/well in a 96-well plate (pp, round bottom). Then, ligand was added in 50 μL/well and incubated for 60 minutes at 37° C. Final assay concentrations were 1 μM to 30 pM test compound, 1 μM Exon1-Q46 protein (equivalent monomer concentration) and 0.3 nM ligand [^3H3-methyl]-5-((5-methoxypyridin-2-yl)methoxy)-2-(pyrazin-2-yl)benzo[d]oxazole. Samples were transferred onto GF/B filter plates and washed 2× with 200 μL PBS using a Filtermate Harvester. After drying filter plates for 1 hour at 55° C., the back of the plates were sealed with foil and 30 μL/well scintillation fluid (Packard MicroScint 40) added, incubated for 15 minutes in the dark and counted in a MicroBeta reader. For analysis, replicate data from independent assay plates were normalized towards 0% and 100% inhibition using control wells of vehicle (0% inhibition) and 1 μM unlabeled [^3H3-methyl]-5-((5-methoxypyridin-2-yl)methoxy)-2-(pyrazin-2-yl)benzo[d]oxazole (100% inhibition). IC50 values were determined with a sigmoidal inhibition model with four variables (top, bottom, slope, IC50) in a global fit using the normalized replicate data.
The results for various example compounds were as provided in the table below (+++<100 nM; ++100-500; +500-10000; ND: not determined): […]
On to `O=C(Nc1ccccc1)c1cc(-c2cccc(Cl)c2)ncn1` [Example 1, 6-(3-Chlorophenyl)-N-phenylpyrimidine-4-carboxamide], for which the IC50 is less than 100 nM.
Take `O=C(c1cc(-c2cccc(Cl)c2)ncn1)N1CCc2ccccc21` [Example 2]: the IC50 was less than 100 nM.
The result for `COc1cncc(NC(=O)c2cc(-c3cccc(Cl)c3)ncn2)c1` [Example 3] reads less than 100 nM; that for `COc1cccc(-c2cc(C(=O)Nc3ccc(=O)n(C)n3)ncn2)c1` [Example 4, 6-(3-Methoxyphenyl)-N-(1-methyl-6-oxo-1,6-dihydropyridazin-3-yl)pyrimidine-4-carboxamide], less than 100 nM; that for `COc1cc(-c2cc(C(=O)Nc3cncc(OC)c3C)ncn2)ccn1` [Example 5], less than 100 nM.
Regarding `COc1cc(-c2cc(C(=O)Nc3cncc(Cl)c3OC)ncn2)ccn1` [Example 6], the IC50 was less than 100 nM.
For `COc1cncc(NC(=O)c2cc(-c3ccnc(OC)c3)ncn2)c1` [Example 7] the value was less than 100 nM.
The result for `COc1ccc(-c2cc(C(=O)Nc3ccc(=O)n(C)n3)ncn2)cc1Cl` [Example 8, 6-(3-Chloro-4-methoxyphenyl)-N-(1-methyl-6-oxo-1,6-dihydropyridazin-3-yl)pyrimidine-4-carboxamide] reads less than 100 nM; that for `COc1cc(-c2cc(C(=O)Nc3ccc(=O)n(C)n3)ncn2)ccc1Cl` [Example 9], less than 100 nM; that for `COc1cc(-c2cc(C(=O)Nc3ccc(=O)n(C)n3)ncn2)ccc1F` [Example 10], less than 100 nM.
The result for `Cn1nc(NC(=O)c2cc(-c3cc(F)cc(Cl)c3)ncn2)ccc1=O` [Example 11] reads less than 100 nM.
As for `Cn1nc(NC(=O)c2cc(-c3ccc(F)c(Cl)c3)ncn2)ccc1=O` [Example 12], the IC50 is less than 100 nM.
For `COc1ccc(CNC(=O)c2cc(-c3ccc(F)c(OC)c3)ncn2)nc1` [Example 13] the value was less than 100 nM; for `COc1cc(-c2cc(C(=O)N3Cc4cccnc4C3)ncn2)ccn1` [Example 14], less than 100 nM; for `COc1cc(-c2cc(C(=O)NCc3ncccc3OC)ncn2)ccc1F` [Example 15], less than 100 nM.
The result for `COc1ccnc(CNC(=O)c2cc(-c3ccc(F)c(OC)c3)ncn2)n1` [Example 16] reads less than 100 nM; that for `COc1ncc(-c2cc(C(=O)Nc3ccc(=O)n(C)n3)ncn2)cc1Cl` [Example 17], less than 100 nM; that for `COc1ccc(-c2cc(C(=O)Nc3nccn(C)c3=O)ncn2)cc1Cl` [Example 18], less than 100 nM.
On to `COc1cc(C#N)cc(-c2cc(C(=O)Nc3ccc(=O)n(C)n3)ncn2)c1` [Example 19], for which the IC50 was less than 100 nM.
The result for `Cn1nc(NC(=O)c2cc(-c3cc(F)cc(C#N)c3)ncn2)ccc1=O` [Example 20] reads less than 100 nM; that for `COc1cc(F)cc(-c2cc(C(=O)Nc3ccc(=O)n(C)n3)ncn2)c1` [Example 21], less than 100 nM.
For `Cc1cc(Cl)cc(-c2cc(C(=O)Nc3ccc(=O)n(C)n3)ncn2)c1` [Example 22] the value was less than 100 nM.
The result for `Cn1nc(NC(=O)c2cc(-c3cc(F)nc(Cl)c3)ncn2)ccc1=O` [Example 23] reads less than 100 nM; that for `Cn1ccnc(NC(=O)c2cc(-c3cc(F)cc(Cl)c3)ncn2)c1=O` [Example 24], less than 100 nM.
Take `COc1cnc(NC(=O)c2cc(-c3cc(F)cc(Cl)c3)ncn2)cn1` [Example 25]: the IC50 was less than 100 nM.
For `COc1cc(C#N)cc(-c2cc(C(=O)Nc3ccc(=O)[nH]n3)ncn2)c1` [Example 26] the value was less than 100 nM; for `N#Cc1cc(F)cc(-c2cc(C(=O)Nc3ccc(=O)[nH]n3)ncn2)c1` [Example 27], less than 100 nM.
For `COc1ncc(NC(=O)c2cc(-c3cc(F)cc(Cl)c3)ncn2)cn1` [Example 28] the value was less than 100 nM; for `COc1cc(-c2cc(C(=O)NCc3nccc(=O)n3C)ncn2)ccc1F` [Example 29, 6-(4-Fluoro-3-methoxyphenyl)-N-((1-methyl-6-oxo-1,6-dihydropyrimidin-2-yl)methyl)pyrimidine-4-carboxamide], less than 100 nM.
For `COc1ccc(-c2cc(C(=O)NCc3nccc(=O)n3C)ncn2)cc1Cl` [Example 30] the value was less than 100 nM; for `Cn1c(CNC(=O)c2cc(-c3cc(F)cc(Cl)c3)ncn2)nccc1=O` [Example 31], less than 100 nM; for `Cn1c(CNC(=O)c2cc(-c3cc(F)cc(C#N)c3)ncn2)nccc1=O` [Example 32], less than 100 nM.
For the compound `COc1ncc(-c2cc(C(=O)NCc3nccc(=O)n3C)ncn2)cc1Cl` [Example 33, 6-(5-Chloro-6-methoxypyridin-3-yl)-N-((1-methyl-6-oxo-1,6-dihydropyrimidin-2-yl)methyl)pyrimidine-4-carboxamide], the IC50 was less than 100 nM.
For `COc1ccnc(CNC(=O)c2cc(-c3cnc(OC)c(Cl)c3)ncn2)n1` [Example 34, 6-(5-chloro-6-methoxypyridin-3-yl)-N-((4-methoxypyrimidin-2-yl)methyl)pyrimidine-4-carboxamide] the value was less than 100 nM; for `Cn1cc(NC(=O)c2cc(-c3cc(F)cc(Cl)c3)ncn2)cnc1=O` [Example 35, 6-(3-Chloro-5-fluorophenyl)-N-(1-methyl-2-oxo-1,2-dihydropyrimidin-5-yl)pyrimidine-4-carboxamide], less than 100 nM; for `COc1ccc(-c2cc(C(=O)Nc3cnn(C)c(=O)c3)ncn2)cc1Cl` [Example 36, 6-(3-Chloro-4-methoxyphenyl)-N-(1-methyl-6-oxo-1,6-dihydropyridazin-4-yl)pyrimidine-4-carboxamide], less than 100 nM.
Turning to `COc1ccc(-c2cc(C(=O)Nc3cc(=O)n(C)cn3)ncn2)cc1Cl` [Example 37], the IC50 is less than 100 nM.
The result for `Cn1cnc(NC(=O)c2cc(-c3cc(F)cc(Cl)c3)ncn2)cc1=O` [Example 38] reads less than 100 nM; that for `Cn1ncc(NC(=O)c2cc(-c3cc(F)cc(Cl)c3)ncn2)cc1=O` [Example 39], less than 100 nM; that for `COc1cc(-c2cc(C(=O)Nc3ccc(=O)n(C)n3)nc(-c3ccccc3)n2)ccn1` [Example 40, 6-(2-Methoxypyridin-4-yl)-N-(1-methyl-6-oxo-1,6-dihydropyridazin-3-yl)-2-phenylpyrimidine-4-carboxamide], less than 100 nM.
